How the values were obtained:
Assay type in all cases: in vivo
corn (Zea mays) [1] = experiment: Test G Pre-Emergence Protocol; settings: Zea mays, pre-emergence, 312 h, evaluated after 13 days; for plant injury at 15.625 g/ha: 15.625 g ai/ha; for plant injury at 15.625 g/ha / plant injury at 250 g/ha: read-out: Corn damage rating (100=total damage to plant; 0=no damage to plant); for plant injury at 62.5 g/ha: 62.5 g ai/ha, 100=total damage to plant, 0=no damage to plant, read-out: Corn damage rating; for plant injury at 250 g/ha: 250 g ai/ha
Summary of the method: (§1)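 Seeds were sown in standard soil and kept one day in a glasshouse (24/16° C day/night, 14 h light, 65% humidity), then sprayed with compound in acetone/water (50:50) containing 0.5% Tween 20 at 15.625, 62.5 or 250 g/ha. Damage was scored after 13 days (0 = none, 100 = total).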

[2] = system: ivy-leaved morning glory (Ipomoea hederacea); experiment: Test G Pre-Emergence Protocol; settings: Ipomoea, pre-emergence, 312 h, evaluated after 13 days; for pest or weed control at 15.625 g/ha: 15.625 g ai/ha; for pest or weed control at 15.625 g/ha / pest or weed control at 250 g/ha: read-out: Morningglory, Ivy-leaved damage rating (100=total damage to plant; 0=no damage to plant); for pest or weed control at 62.5 g/ha: 62.5 g ai/ha, 100=total damage to plant, 0=no damage to plant, read-out: Morningglory, Ivy-leaved damage rating; for pest or weed control at 250 g/ha: 250 g ai/ha
Summary of the method: as §1

[3] = system: redroot pigweed (Amaranthus retroflexus); experiment: Test G Pre-Emergence Protocol; settings: Amaranthus retroflexus, pre-emergence, 312 h, evaluated after 13 days; for pest or weed control at 15.625 g/ha: 15.625 g ai/ha; for pest or weed control at 15.625 g/ha / pest or weed control at 250 g/ha: read-out: Pigweed, Redroot damage rating (100=total damage to plant; 0=no damage to plant); for pest or weed control at 62.5 g/ha: 62.5 g ai/ha, 100=total damage to plant, 0=no damage to plant, read-out: Pigweed, Redroot damage rating; for pest or weed control at 250 g/ha: 250 g ai/ha
Summary of the method: as §1

[4] = system: giant foxtail (Setaria faberi); experiment: Test G Pre-Emergence Protocol; settings: Setaria faberi, pre-emergence, 312 h, evaluated after 13 days; for pest or weed control at 15.625 g/ha: 15.625 g ai/ha; for pest or weed control at 15.625 g/ha / pest or weed control at 250 g/ha: read-out: Foxtail, Giant damage rating (100=total damage to plant; 0=no damage to plant); for pest or weed control at 62.5 g/ha: 62.5 g ai/ha, 100=total damage to plant, 0=no damage to plant, read-out: Foxtail, Giant damage rating; for pest or weed control at 250 g/ha: 250 g ai/ha
Summary of the method: as §1

[5] = system: barnyardgrass (Echinochloa crus-galli); experiment: Test G Pre-Emergence Protocol; settings: Echinochloa crus-galli, pre-emergence, 312 h, evaluated after 13 days; for pest or weed control at 15.625 g/ha: 15.625 g ai/ha; for pest or weed control at 15.625 g/ha / pest or weed control at 250 g/ha: read-out: Barnyardgrass damage rating (100=total damage to plant; 0=no damage to plant); for pest or weed control at 62.5 g/ha: 62.5 g ai/ha, 100=total damage to plant, 0=no damage to plant, read-out: Barnyardgrass damage rating; for pest or weed control at 250 g/ha: 250 g ai/ha
Summary of the method: as §1

[6] = system: velvetleaf (Abutilon theophrasti); experiment: Test G Pre-Emergence Protocol; settings: Abutilon theophrasti, pre-emergence, 312 h, evaluated after 13 days; for pest or weed control at 15.625 g/ha: 15.625 g ai/ha; for pest or weed control at 15.625 g/ha / pest or weed control at 250 g/ha: read-out: Velvetleaf damage rating (100=total damage to plant; 0=no damage to plant); for pest or weed control at 62.5 g/ha: 62.5 g ai/ha, 100=total damage to plant, 0=no damage to plant, read-out: Velvetleaf damage rating; for pest or weed control at 250 g/ha: 250 g ai/ha
Summary of the method: as §1

corn (Zea mays) [7] = experiment: Test G Post-Emergence Protocol; settings: Zea mays, post-emergence, 312 h, read-out: Corn damage rating; for plant injury at 15.625 g/ha: 15.625 g ai/ha, evaluated after 13 days (100=total damage to plant; 0=no damage to plant); for plant injury at 62.5 g/ha: 62.5 g ai/ha; for plant injury at 62.5 g/ha / plant injury at 250 g/ha: evaluated after 13 days, 100=total damage to plant, 0=no damage to plant; for plant injury at 250 g/ha: 250 g ai/ha
Summary of the method: (§2)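 Values are percent visual injury at 13 days after treatment (0 none, 100 total). Treatment was a post-emergence spray at 15.625, 62.5 or 250 g/ha on 8-day-old pot plants kept at 24/16 °C.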

[8] = system: ivy-leaved morning glory (Ipomoea hederacea); experiment: Test G Post-Emergence Protocol; settings: Ipomoea, post-emergence, 312 h, read-out: Morningglory, Ivy-leaved damage rating; for pest or weed control at 15.625 g/ha: 15.625 g ai/ha, evaluated after 13 days (100=total damage to plant; 0=no damage to plant); for pest or weed control at 62.5 g/ha: 62.5 g ai/ha; for pest or weed control at 62.5 g/ha / pest or weed control at 250 g/ha: evaluated after 13 days, 100=total damage to plant, 0=no damage to plant; for pest or weed control at 250 g/ha: 250 g ai/ha
Summary of the method: as §2

[9] = system: redroot pigweed (Amaranthus retroflexus); experiment: Test G Post-Emergence Protocol; settings: Amaranthus retroflexus, post-emergence, 312 h, read-out: Pigweed, Redroot damage rating; for pest or weed control at 15.625 g/ha: 15.625 g ai/ha, evaluated after 13 days (100=total damage to plant; 0=no damage to plant); for pest or weed control at 62.5 g/ha: 62.5 g ai/ha; for pest or weed control at 62.5 g/ha / pest or weed control at 250 g/ha: evaluated after 13 days, 100=total damage to plant, 0=no damage to plant; for pest or weed control at 250 g/ha: 250 g ai/ha
Summary of the method: as §2

[10] = system: giant foxtail (Setaria faberi); experiment: Test G Post-Emergence Protocol; settings: Setaria faberi, post-emergence, 312 h, read-out: Foxtail, Giant damage rating; for pest or weed control at 15.625 g/ha: 15.625 g ai/ha, evaluated after 13 days (100=total damage to plant; 0=no damage to plant); for pest or weed control at 62.5 g/ha: 62.5 g ai/ha; for pest or weed control at 62.5 g/ha / pest or weed control at 250 g/ha: evaluated after 13 days, 100=total damage to plant, 0=no damage to plant; for pest or weed control at 250 g/ha: 250 g ai/ha
Summary of the method: as §2

[11] = system: barnyardgrass (Echinochloa crus-galli); experiment: Test G Post-Emergence Protocol; settings: Echinochloa crus-galli, post-emergence, 312 h, read-out: Barnyardgrass damage rating; for pest or weed control at 15.625 g/ha: 15.625 g ai/ha, evaluated after 13 days (100=total damage to plant; 0=no damage to plant); for pest or weed control at 62.5 g/ha: 62.5 g ai/ha; for pest or weed control at 62.5 g/ha / pest or weed control at 250 g/ha: evaluated after 13 days, 100=total damage to plant, 0=no damage to plant; for pest or weed control at 250 g/ha: 250 g ai/ha
Summary of the method: as §2

[12] = system: velvetleaf (Abutilon theophrasti); experiment: Test G Post-Emergence Protocol; settings: Abutilon theophrasti, post-emergence, 312 h, read-out: Velvetleaf damage rating; for pest or weed control at 15.625 g/ha: 15.625 g ai/ha, evaluated after 13 days (100=total damage to plant; 0=no damage to plant); for pest or weed control at 62.5 g/ha: 62.5 g ai/ha; for pest or weed control at 62.5 g/ha / pest or weed control at 250 g/ha: evaluated after 13 days, 100=total damage to plant, 0=no damage to plant; for pest or weed control at 250 g/ha: 250 g ai/ha
Summary of the method: as §2

Cc1cc([C@H]2CN(C)C(=O)[C@@H]2C(=O)Nc2cccc(F)c2F)cnn1 (racemic) [Compound 1662]
0%: plant injury at 15.625 g/ha (corn (Zea mays) [1]) | plant injury at 62.5 g/ha (corn (Zea mays) [1]) | plant injury at 250 g/ha (corn (Zea mays) [1]) | pest or weed control at 15.625 g/ha [2] | pest or weed control at 62.5 g/ha [2] | pest or weed control at 250 g/ha [2] | pest or weed control at 15.625 g/ha [3] | pest or weed control at 62.5 g/ha [3] | pest or weed control at 250 g/ha [3] | pest or weed control at 15.625 g/ha [4] | pest or weed control at 62.5 g/ha [4] | pest or weed control at 250 g/ha [4] | pest or weed control at 15.625 g/ha [5] | pest or weed control at 62.5 g/ha [5] | pest or weed control at 250 g/ha [5] | pest or weed control at 15.625 g/ha [6] | pest or weed control at 62.5 g/ha [6] | pest or weed control at 250 g/ha [6] | plant injury at 15.625 g/ha (corn (Zea mays) [7]) | plant injury at 62.5 g/ha (corn (Zea mays) [7]) | plant injury at 250 g/ha (corn (Zea mays) [7]) | pest or weed control at 15.625 g/ha [8] | pest or weed control at 62.5 g/ha [8] | pest or weed control at 250 g/ha [8] | pest or weed control at 15.625 g/ha [9] | pest or weed control at 62.5 g/ha [9] | pest or weed control at 250 g/ha [9] | pest or weed control at 15.625 g/ha [10] | pest or weed control at 62.5 g/ha [10] | pest or weed control at 250 g/ha [10] | pest or weed control at 15.625 g/ha [11] | pest or weed control at 62.5 g/ha [11] | pest or weed control at 250 g/ha [11] | pest or weed control at 15.625 g/ha [12] | pest or weed control at 62.5 g/ha [12] | pest or weed control at 250 g/ha [12]

Cc1cc([C@H]2CN(C)C(=O)[C@@H]2C(=O)Nc2ccc(F)c(F)c2F)cnn1 (racemic) [Compound 1663]
0%: plant injury at 15.625 g/ha (corn (Zea mays) [1]) | plant injury at 62.5 g/ha (corn (Zea mays) [1]) | plant injury at 250 g/ha (corn (Zea mays) [1]) | pest or weed control at 15.625 g/ha [2] | pest or weed control at 62.5 g/ha [2] | pest or weed control at 250 g/ha [2] | pest or weed control at 15.625 g/ha [3] | pest or weed control at 62.5 g/ha [3] | pest or weed control at 250 g/ha [3] | pest or weed control at 15.625 g/ha [4] | pest or weed control at 62.5 g/ha [4] | pest or weed control at 250 g/ha [4] | pest or weed control at 15.625 g/ha [5] | pest or weed control at 62.5 g/ha [5] | pest or weed control at 250 g/ha [5] | pest or weed control at 15.625 g/ha [6] | pest or weed control at 62.5 g/ha [6] | pest or weed control at 250 g/ha [6] | plant injury at 15.625 g/ha (corn (Zea mays) [7]) | plant injury at 62.5 g/ha (corn (Zea mays) [7]) | plant injury at 250 g/ha (corn (Zea mays) [7]) | pest or weed control at 15.625 g/ha [8] | pest or weed control at 62.5 g/ha [8] | pest or weed control at 250 g/ha [8] | pest or weed control at 15.625 g/ha [9] | pest or weed control at 62.5 g/ha [9] | pest or weed control at 250 g/ha [9] | pest or weed control at 15.625 g/ha [10] | pest or weed control at 62.5 g/ha [10] | pest or weed control at 250 g/ha [10] | pest or weed control at 15.625 g/ha [11] | pest or weed control at 62.5 g/ha [11] | pest or weed control at 250 g/ha [11] | pest or weed control at 15.625 g/ha [12] | pest or weed control at 62.5 g/ha [12] | pest or weed control at 250 g/ha [12]
